Laboratory results from ChEMBL document CHEMBL2016544, “Low brain penetrant CB1 receptor agonists for the treatment of neuropathic pain” (Bioorg Med Chem Lett, 2012).
≈ marks a conversion by molar mass, not a printed value.

Tests used:
Cannabinoid receptor 1 [1] = target: T1, Cannabinoid receptor 1 (Homo sapiens, UniProt P21554); assay: Agonist activity at CB1 receptor; format: functional
[2] = Intrinsic clearance in rat liver microsomes; format: ADME, Microsome; settings: read-out: CLH
[3] = Intrinsic clearance in human liver microsomes; format: ADME, Microsome; settings: read-out: CLH
Rattus norvegicus [4] = assay: Analgesic activity in sc dosed rat Chung von Frey model of neuropathic pain assessed as anti-allodynic effect against mechanical stimulus; format: functional
Rattus norvegicus [5] = assay: Ratio of MED for toxicity in sc dosed rat assessed as catalepsy to ED50 for anti-allodynic activity in sc dosed rat Chung von Frey model of neuropathic pain; format: functional
Rattus norvegicus [6] = assay: Toxicity in sc dosed rat assessed as catalepsy by ring immobility test; format: organism-based; settings: in vivo
[7] = Ratio of drug level in brain to plasma in mouse; format: ADME, organism-based; settings: read-out: BPR
[8] = Oral bioavailability in rat; format: ADME, organism-based; settings: in vivo
[9] = Solubility of the compound at pH 7.4; format: physicochemical; settings: buffer
Cannabinoid receptor 1 [10] = target: T1, Cannabinoid receptor 1; assay: Displacement of [3H]CP 55,940 from human CB1 receptor expressed in insect sf9 membranes; format: cell membranes
Cannabinoid receptor 2 = Cannabinoid receptor 2 (Homo sapiens, UniProt P34972); assay: Displacement of [3H]CP 55,940 from human CB2 receptor expressed in insect sf9 membranes; format: cell membranes
Chain of Cannabinoid receptor 2 (P34972 whole entry): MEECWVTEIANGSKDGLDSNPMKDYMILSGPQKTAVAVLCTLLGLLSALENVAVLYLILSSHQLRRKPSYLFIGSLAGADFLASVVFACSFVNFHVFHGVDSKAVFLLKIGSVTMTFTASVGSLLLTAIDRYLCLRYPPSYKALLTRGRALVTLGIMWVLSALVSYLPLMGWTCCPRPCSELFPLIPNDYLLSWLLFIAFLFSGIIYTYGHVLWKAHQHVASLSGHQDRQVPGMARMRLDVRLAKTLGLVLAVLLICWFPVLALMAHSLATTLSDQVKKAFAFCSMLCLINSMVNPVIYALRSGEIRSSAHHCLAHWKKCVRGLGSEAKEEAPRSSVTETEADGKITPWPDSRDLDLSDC

T1 sequence (P21554 whole entry): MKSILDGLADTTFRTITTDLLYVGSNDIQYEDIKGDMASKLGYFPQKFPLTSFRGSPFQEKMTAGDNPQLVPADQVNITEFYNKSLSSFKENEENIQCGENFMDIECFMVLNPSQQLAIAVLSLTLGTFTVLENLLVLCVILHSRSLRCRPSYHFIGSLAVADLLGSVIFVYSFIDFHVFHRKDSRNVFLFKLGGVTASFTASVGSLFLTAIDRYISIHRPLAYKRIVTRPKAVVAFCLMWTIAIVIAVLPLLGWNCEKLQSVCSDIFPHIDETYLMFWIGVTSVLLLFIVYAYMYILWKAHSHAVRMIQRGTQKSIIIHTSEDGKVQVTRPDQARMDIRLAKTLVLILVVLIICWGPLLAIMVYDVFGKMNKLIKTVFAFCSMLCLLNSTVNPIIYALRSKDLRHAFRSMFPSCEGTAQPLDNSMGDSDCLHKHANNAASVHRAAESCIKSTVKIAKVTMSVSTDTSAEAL

| Compound | EC50 (Cannabinoid receptor 1 [1]) | microsomal CLint [2] | microsomal CLint [3] | Kp [7] | bioavailability [8] | other results |
| --- | --- | --- | --- | --- | --- | --- |
| CN(CC(N)=O)Cc1nc(-c2cn(CC3CCS(=O)(=O)CC3)c3c(Cl)cccc23)no1 | 158 nM | 33 µL/min/mg | 26 µL/min/mg | – | – | – |
| Cc1c(C(=O)c2cccc3ccccc23)c2cccc3c2n1[C@H](CN1CCOCC1)CO3 [WIN-552122] | – | – | – | 1.3 | 0% | ED50 (Rattus norvegicus [4]): 1.6 µmol/kg; Ratio (Rattus norvegicus [5]): 3.7; MED (Rattus norvegicus [6]): 5.7 µmol/kg |
| CN(CC(N)=O)Cc1nc(-c2cn(CC3CCS(=O)(=O)CC3)c3c(Cl)cccc23)ns1 | 158 nM | 52 µL/min/mg | 25 µL/min/mg | – | – | – |
| CN(CC(N)=O)Cc1nc(-c2cn(CC3CCOCC3)c3c(Cl)cccc23)ns1 | 631 nM | – | – | – | – | – |
| NC(=O)CN1CCN(Cc2nc(-c3cn(CC4CCS(=O)(=O)CC4)c4c(Cl)cccc34)ns2)CC1 | – | < 12 µL/min/mg | < 12 µL/min/mg | – | – | pEC50 (Cannabinoid receptor 1 [1]): 6.7 |
| NC(=O)CN1CCN(Cc2nc(-c3cn(CC4CCOCC4)c4c(Cl)cccc34)ns2)CC1 | 63.1 nM | 23 µL/min/mg | 23 µL/min/mg | – | – | – |
| O=C(NCCO)[C@H]1CCCN(Cc2nc(-c3cn(CC4CCS(=O)(=O)CC4)c4c(Cl)cccc34)ns2)C1 | 20 nM | 32 µL/min/mg | 47 µL/min/mg | 0.03 | 1% | solubility [9]: 45 µg/mL (≈ 79.5 µM); Ki (Cannabinoid receptor 1 [10]): 31.6 nM; Ki (Cannabinoid receptor 2): 20 nM |
| COc1cccc2c(-c3nsc(CN4CCN(CC(N)=O)CC4)n3)cn(CC3CCOCC3)c12 | 79.4 nM | 17 µL/min/mg | 17 µL/min/mg | 0.18 | 40% | solubility [9]: 5 µg/mL (≈ 10.3 µM); Ki (Cannabinoid receptor 1 [10]): 6.31 nM; Ki (Cannabinoid receptor 2): 15.8 nM |
| O=C(NCCO)C1CCN(Cc2nc(-c3cn(CC4CCS(=O)(=O)CC4)c4c(Cl)cccc34)no2)CC1 | 1000 nM | < 12 µL/min/mg | < 12 µL/min/mg | – | – | – |
